Reference: the NIST ThermoML archive (doi:10.1016/j.jct.2019.02.011)
± gives the expanded uncertainty stated by the source.

Assay: xn = mol fraction of the nth substance listed
Details: Liquid, Vibrating tube method

COC(=O)OC [dimethyl carbonate] + CO
Details	mass density [kg/m3]
288.15 K, 25000 kPa, x1 = 0.6993	1051 ± 1.5
288.15 K, 25000 kPa, x1 = 0.7496	1059.86 ± 1.5
288.15 K, 25000 kPa, x1 = 0.799	1067.94 ± 1.6
288.15 K, 25000 kPa, x1 = 0.837	1073.92 ± 1.6
288.15 K, 25000 kPa, x1 = 0.9093	1084.6 ± 1.6
288.15 K, 25000 kPa, x1 = 0.9239	1086.65 ± 1.6
288.15 K, 25000 kPa, x1 = 0.9575	1091.29 ± 1.6
288.15 K, 25000 kPa, x1 = 0.9861	1095.14 ± 1.6
288.15 K, 25000 kPa, x1 = 1	1096.99 ± 0.62
288.15 K, 30000 kPa, x1 = 0.0253	834.68 ± 1.4
288.15 K, 30000 kPa, x1 = 0.0503	848.4 ± 1.4
288.15 K, 30000 kPa, x1 = 0.0745	861.06 ± 1.4
288.15 K, 30000 kPa, x1 = 0.101	874.32 ± 1.4
288.15 K, 30000 kPa, x1 = 0.1502	897.03 ± 1.4
288.15 K, 30000 kPa, x1 = 0.2059	920.43 ± 1.4
288.15 K, 30000 kPa, x1 = 0.25	937.36 ± 1.4
288.15 K, 30000 kPa, x1 = 0.3004	955.1 ± 1.5
288.15 K, 30000 kPa, x1 = 0.3426	968.8 ± 1.5
288.15 K, 30000 kPa, x1 = 0.3984	985.59 ± 1.5
288.15 K, 30000 kPa, x1 = 0.4514	1000.22 ± 1.5
288.15 K, 30000 kPa, x1 = 0.5054	1013.92 ± 1.5
288.15 K, 30000 kPa, x1 = 0.5509	1024.6 ± 1.5
288.15 K, 30000 kPa, x1 = 0.6002	1035.34 ± 1.5
288.15 K, 30000 kPa, x1 = 0.6469	1044.75 ± 1.5
288.15 K, 30000 kPa, x1 = 0.6993	1054.61 ± 1.5
288.15 K, 30000 kPa, x1 = 0.7496	1063.48 ± 1.6
288.15 K, 30000 kPa, x1 = 0.799	1071.56 ± 1.6
288.15 K, 30000 kPa, x1 = 0.837	1077.55 ± 1.6
288.15 K, 30000 kPa, x1 = 0.9093	1088.24 ± 1.6
288.15 K, 30000 kPa, x1 = 0.9239	1090.28 ± 1.6
288.15 K, 30000 kPa, x1 = 0.9575	1094.93 ± 1.6
288.15 K, 30000 kPa, x1 = 0.9861	1098.78 ± 1.6
288.15 K, 30000 kPa, x1 = 1	1100.63 ± 0.63
288.15 K, 35000 kPa, x1 = 0.0253	838.22 ± 1.4
288.15 K, 35000 kPa, x1 = 0.0503	851.95 ± 1.4
288.15 K, 35000 kPa, x1 = 0.0745	864.56 ± 1.4
288.15 K, 35000 kPa, x1 = 0.101	877.83 ± 1.4
288.15 K, 35000 kPa, x1 = 0.1502	900.56 ± 1.4
288.15 K, 35000 kPa, x1 = 0.2059	923.97 ± 1.4
288.15 K, 35000 kPa, x1 = 0.25	940.91 ± 1.4
288.15 K, 35000 kPa, x1 = 0.3004	958.61 ± 1.5
288.15 K, 35000 kPa, x1 = 0.3426	972.32 ± 1.5
288.15 K, 35000 kPa, x1 = 0.3984	989.12 ± 1.5
288.15 K, 35000 kPa, x1 = 0.4514	1003.71 ± 1.5
288.15 K, 35000 kPa, x1 = 0.5054	1017.42 ± 1.5
288.15 K, 35000 kPa, x1 = 0.5509	1028.11 ± 1.5
288.15 K, 35000 kPa, x1 = 0.6002	1038.85 ± 1.5
288.15 K, 35000 kPa, x1 = 0.6469	1048.27 ± 1.5
288.15 K, 35000 kPa, x1 = 0.6993	1058.08 ± 1.5
288.15 K, 35000 kPa, x1 = 0.7496	1066.96 ± 1.6
288.15 K, 35000 kPa, x1 = 0.799	1075.04 ± 1.6
288.15 K, 35000 kPa, x1 = 0.837	1080.99 ± 1.6
288.15 K, 35000 kPa, x1 = 0.9093	1091.68 ± 1.6
288.15 K, 35000 kPa, x1 = 0.9239	1093.73 ± 1.6
288.15 K, 35000 kPa, x1 = 0.9575	1098.38 ± 1.6
288.15 K, 35000 kPa, x1 = 0.9861	1102.23 ± 1.6
288.15 K, 35000 kPa, x1 = 1	1104.08 ± 0.65
288.15 K, 40000 kPa, x1 = 0.0253	841.6 ± 1.4
288.15 K, 40000 kPa, x1 = 0.0503	855.33 ± 1.4
288.15 K, 40000 kPa, x1 = 0.0745	867.95 ± 1.4
288.15 K, 40000 kPa, x1 = 0.101	881.23 ± 1.4
288.15 K, 40000 kPa, x1 = 0.1502	903.97 ± 1.4
288.15 K, 40000 kPa, x1 = 0.2059	927.4 ± 1.4
288.15 K, 40000 kPa, x1 = 0.25	944.34 ± 1.5
288.15 K, 40000 kPa, x1 = 0.3004	962.05 ± 1.5
288.15 K, 40000 kPa, x1 = 0.3426	975.72 ± 1.5
288.15 K, 40000 kPa, x1 = 0.3984	992.53 ± 1.5
288.15 K, 40000 kPa, x1 = 0.4514	1007.07 ± 1.5
288.15 K, 40000 kPa, x1 = 0.5054	1020.79 ± 1.5
288.15 K, 40000 kPa, x1 = 0.5509	1031.49 ± 1.5
288.15 K, 40000 kPa, x1 = 0.6002	1042.19 ± 1.5
288.15 K, 40000 kPa, x1 = 0.6469	1051.61 ± 1.5
288.15 K, 40000 kPa, x1 = 0.6993	1061.43 ± 1.6
288.15 K, 40000 kPa, x1 = 0.7496	1070.31 ± 1.6
288.15 K, 40000 kPa, x1 = 0.799	1078.4 ± 1.6
288.15 K, 40000 kPa, x1 = 0.837	1084.34 ± 1.6
288.15 K, 40000 kPa, x1 = 0.9093	1094.99 ± 1.6
288.15 K, 40000 kPa, x1 = 0.9239	1097.04 ± 1.6
288.15 K, 40000 kPa, x1 = 0.9575	1101.69 ± 1.6
288.15 K, 40000 kPa, x1 = 0.9861	1105.55 ± 1.6
288.15 K, 40000 kPa, x1 = 1	1107.4 ± 0.67
293.15 K, 100 kPa, x1 = 0.0253	805.71 ± 1.4
293.15 K, 100 kPa, x1 = 0.0503	819.38 ± 1.4
293.15 K, 100 kPa, x1 = 0.0745	831.94 ± 1.4
293.15 K, 100 kPa, x1 = 0.101	844.99 ± 1.4
293.15 K, 100 kPa, x1 = 0.1502	867.43 ± 1.4
293.15 K, 100 kPa, x1 = 0.2059	890.58 ± 1.4
293.15 K, 100 kPa, x1 = 0.25	907.39 ± 1.4
293.15 K, 100 kPa, x1 = 0.3004	925.01 ± 1.4
293.15 K, 100 kPa, x1 = 0.3426	938.66 ± 1.4
293.15 K, 100 kPa, x1 = 0.3984	955.38 ± 1.5
293.15 K, 100 kPa, x1 = 0.4514	969.9 ± 1.5
293.15 K, 100 kPa, x1 = 0.5054	983.54 ± 1.5
293.15 K, 100 kPa, x1 = 0.5509	994.14 ± 1.5
293.15 K, 100 kPa, x1 = 0.6002	1004.83 ± 1.5
293.15 K, 100 kPa, x1 = 0.6469	1014.25 ± 1.5
293.15 K, 100 kPa, x1 = 0.6993	1024.07 ± 1.5
293.15 K, 100 kPa, x1 = 0.7496	1032.91 ± 1.5
293.15 K, 100 kPa, x1 = 0.799	1041.06 ± 1.5
293.15 K, 100 kPa, x1 = 0.837	1047.02 ± 1.5
293.15 K, 100 kPa, x1 = 0.9093	1057.71 ± 1.5
293.15 K, 100 kPa, x1 = 0.9239	1059.75 ± 1.5
293.15 K, 100 kPa, x1 = 0.9575	1064.38 ± 1.6
293.15 K, 100 kPa, x1 = 0.9861	1068.22 ± 1.6
293.15 K, 100 kPa, x1 = 1	1070.06 ± 0.56
293.15 K, 5000 kPa, x1 = 0.0253	810.46 ± 1.4
293.15 K, 5000 kPa, x1 = 0.0503	824.13 ± 1.4
293.15 K, 5000 kPa, x1 = 0.0745	836.69 ± 1.4
293.15 K, 5000 kPa, x1 = 0.101	849.75 ± 1.4
293.15 K, 5000 kPa, x1 = 0.1502	872.18 ± 1.4
293.15 K, 5000 kPa, x1 = 0.2059	895.35 ± 1.4
293.15 K, 5000 kPa, x1 = 0.25	912.16 ± 1.4
293.15 K, 5000 kPa, x1 = 0.3004	929.73 ± 1.4
293.15 K, 5000 kPa, x1 = 0.3426	943.38 ± 1.4
293.15 K, 5000 kPa, x1 = 0.3984	960.11 ± 1.5
293.15 K, 5000 kPa, x1 = 0.4514	974.63 ± 1.5
293.15 K, 5000 kPa, x1 = 0.5054	988.23 ± 1.5
293.15 K, 5000 kPa, x1 = 0.5509	998.83 ± 1.5
293.15 K, 5000 kPa, x1 = 0.6002	1009.48 ± 1.5
293.15 K, 5000 kPa, x1 = 0.6469	1018.9 ± 1.5
293.15 K, 5000 kPa, x1 = 0.6993	1028.72 ± 1.5
293.15 K, 5000 kPa, x1 = 0.7496	1037.51 ± 1.5
293.15 K, 5000 kPa, x1 = 0.799	1045.66 ± 1.5
293.15 K, 5000 kPa, x1 = 0.837	1051.63 ± 1.5
293.15 K, 5000 kPa, x1 = 0.9093	1062.27 ± 1.6
293.15 K, 5000 kPa, x1 = 0.9239	1064.31 ± 1.6
293.15 K, 5000 kPa, x1 = 0.9575	1068.94 ± 1.6
293.15 K, 5000 kPa, x1 = 0.9861	1072.78 ± 1.6
293.15 K, 5000 kPa, x1 = 1	1074.62 ± 0.57
293.15 K, 10000 kPa, x1 = 0.0253	814.95 ± 1.4
293.15 K, 10000 kPa, x1 = 0.0503	828.58 ± 1.4
293.15 K, 10000 kPa, x1 = 0.0745	841.14 ± 1.4
293.15 K, 10000 kPa, x1 = 0.101	854.2 ± 1.4
293.15 K, 10000 kPa, x1 = 0.1502	876.65 ± 1.4
293.15 K, 10000 kPa, x1 = 0.2059	899.82 ± 1.4
